Results taken from patent EP0016746A1, “New therapeutically active spirocycloalkylamines and pharmaceutical preparations comprising such compounds” (priority 1979, dated 1980).

How the values were obtained:
[1] = test system: central dopamine (DA) receptors; assay: Blockade of apomorphine induced stereotypies and hyperactivity in rats; assay type: in vivo, Male Sprague-Dawley rats; conditions: for ED50 Hyper-activity / ED50 Stereo-typies: i.p. 60 min prior to apomorphine hydrochloride 1 mg/kg s.c.; for ED50 Hyper-activity: dose reducing number of animals showing hyperactivity by 50% over 60 min observation; for ED50 Stereo-typies: dose reducing strength of stereotypies by 50% over 60 min observation
Description: The DA receptor blockade as measured by different in vitro anc in vivo techniques correlate roughly with the antipsychotic efficacy. The blockade of the behavioural effects induced by the DA receptor agonist apomorphine is highly correlated to the antipsychotic effect of various neuroleptics. The ability of potential neuroleptics to block the apomorphine induced behaviours may thus be a valuable predictor of the anti- psychotic efficacy in man.
Male Sprague-Dawley rats, weighing 250-300 g, were used. […] The compounds were injected intraperitoneally 60 min. prior to apomorphine hydrochloride (1 mg/kg dissolved in saline), which was injected subcutaneously into the neck. […] Directly after the injection the animals were placed in the cages, one in each cage. Scoring of the stereotypies was performed by a modified version (Fuxe et al. in Rhinencephale Neurotransmetteurs et Psychoses, by G. Masson, Paris 1977, p. 253) of the system introduced by Costall and Naylor (Eur. J. Pharmacol. 24 8 (1973).
The number of animals, displaying hyperactivity caused by apomorphine, was scored. Each group consisted of 6-8 animals. Saline controls were always run simultaneously. The EO50's for stereotypies are the doses which reduce the strength of the stereotypies by 50% over the observation period of 60 min. The Ed50's for hyperactivity are the doses which reduce the number of animals showing hyperactivity by 50% over the observation period of 60 min. EO50's were calculated from log dose-curves from 4-6 levels with 6-8 animals per dose level. The test compounds were dissolved in saline or water.

[2] = Heart effects: arterial blood pressure, heart rate and electrocardiograms after consecutive increasing intravenous doses in restrained rats; assay type: in vivo, Male Sprauge-Dawley rats; conditions: for Minimum doses causing changes in: Cardiogram intervals PR / Minimum doses causing changes in: Cardiogram intervals QRS / Minimum doses causing changes in: Cardiogram intervals QT / Minimum doses causing changes in: Heart rate (Decrease) / Minimum doses causing changes in: Mean arterial blood pressure (Decrease): change of more than 15% from values before administration
Procedure: Male Sprauge-Dawley rats weighing 290-360 grams were used. The animals were prepared for recording the arterial blood pressure through a catheter implanted into the abdominal aorta and for injection of drugs through a catheter implanted into the abdominal vena cava. Both catheters were exteriorized at the base of the neck. At least five days were allowed for recovery after the operation.
The animals were kept immobilized in restraining cages during the experiment. The arterial blood pressure was continuously monitored on a Grass Model 7 Polygraph via a Statham P23Gc transducer. Electrocardiograms were taken from subcutaneously placed thin needle electrodes and recorded on a Mingograph 34 (Elema-Schänander AB, Sweden).
Groups of rats were given consecutive increasing intravenous doses of the test compounds from the dose scale: 0.25, 0.5, 1, 2, 4, 8, 16, 32 and 64 […]. The test compounds were injected over a period of 30 seconds at an interval of five minutes at doses of 0.25-8 […] and with an interval of 15 minutes at higher dose ranges.
The minimum doses that caused changes in mean arterial blood pressure, heart rate, PR, QRS and QT intervals of more than 15% from values before administration were arbitrarily defined as a drug effect.

[3] = i.p., rats, comparison in words

SMILES: CN1CCN(C2=Nc3cc(Cl)ccc3Nc3ccccc32)CC1 [Clozapine, reference compound]
- ED50 Hyper-activity [1]: 26 µmol/kg
- ED50 Stereo-typies [1]: 104 µmol/kg

SMILES: CN(C)C1C=CC2(CC1)c1ccccc1CCc1ccc(Cl)cc12 (stereo not shown) [-N(CH3)2, reference compound]
- ED50 Hyper-activity [1]: 6.4 µmol/kg
- ED50 Stereo-typies [1]: 35 µmol/kg
- Minimum doses causing arrhythmias (Second degree AV-block) [2]: 2 to 4 µmol/kg
- Minimum doses causing changes in: Cardiogram intervals PR [2]: 2 µmol/kg
- Minimum doses causing changes in: Cardiogram intervals QRS [2]: >4 µmol/kg
- Minimum doses causing changes in: Cardiogram intervals QT [2]: 4 µmol/kg
- Minimum doses causing changes in: Heart rate (Decrease) [2]: 2 µmol/kg
- Minimum doses causing changes in: Mean arterial blood pressure (Decrease) [2]: 4 µmol/kg

SMILES: OCCN1CCN(C2C=CC3(CC2)c2ccccc2CCc2ccc(Cl)cc23)CC1 (stereo not shown) [Example 4]
- ED50 Hyper-activity [1]: 24 µmol/kg
- ED50 Stereo-typies [1]: 70 µmol/kg
- potency to block apomorphine induced hyperactivity compared with clozapine [1, 3]: as potent as clozapine
- potency to block the stereotypies compared with clozapine [1, 3]: more potent than clozapine
- Minimum doses causing arrhythmias (Second degree AV-block) [2]: 64 µmol/kg
- Minimum doses causing changes in: Cardiogram intervals PR [2]: 32 µmol/kg
- Minimum doses causing changes in: Cardiogram intervals QRS [2]: 16 µmol/kg
- Minimum doses causing changes in: Cardiogram intervals QT [2]: 16 µmol/kg
- Minimum doses causing changes in: Heart rate (Decrease) [2]: 16 to 32 µmol/kg
- Minimum doses causing changes in: Mean arterial blood pressure (Decrease) [2]: 8 µmol/kg

SMILES: CN(C)CCCN1c2ccccc2Sc2ccc(Cl)cc21 [Chlorpromazine, reference compound]
- ED50 Hyper-activity [1]: 6.2 µmol/kg
- ED50 Stereo-typies [1]: 6.2 µmol/kg

SMILES: CNC1C=CC2(CC1)c1ccccc1CCc1ccc(Cl)cc12 (stereo not shown) [Example 3, 3-Chloro-10,11-dihydro-N-methylspiro-[5H-dibenzo[a,d]-cyclohBptene-5,1'-cyclohex-2-Bn]-4'-amine]
- ED50 Hyper-activity [1]: 15 µmol/kg
- ED50 Stereo-typies [1]: 65 µmol/kg
- activity against apomorphine induced behaviours (in words) ([1]; i.p., rats, summary of Table 1): active
- Minimum doses causing arrhythmias (Second degree AV-block) [2]: 16 µmol/kg
- Minimum doses causing changes in: Cardiogram intervals PR [2]: 16 µmol/kg
- Minimum doses causing changes in: Cardiogram intervals QRS [2]: 8 µmol/kg
- Minimum doses causing changes in: Cardiogram intervals QT [2]: 16 µmol/kg
- Minimum doses causing changes in: Heart rate (Decrease) [2]: 16 µmol/kg
- Minimum doses causing changes in: Mean arterial blood pressure (Decrease) [2]: 8 to 16 µmol/kg
